{
  "source": "paper PMC4728560",
  "about": "(Scientific Reports, 2016)",
  "key": {"Bcl-xL": {"system": "Bcl-xL", "test": "In cellulo BRET between Luciferase-fused TCTP and YFP-fused Bcl-xL", "format": "cell-based", "details": "MCF-7 cells; donor Luciferase-fused TCTP, acceptor YFP-fused Bcl-xL", "from_the_text": "See Supplementary Information for full details.\nTwenty-four hours later, cells\nProtein expression and purification"}, "BAX": {"system": "BAX", "test": "In cellulo BRET between TCTP and YFP-fused BAX", "format": "cell-based", "details": "MCF-7 cells; donor TCTP, acceptor YFP-fused BAX", "protocol": "BRET assays were performed as indicated in Bah et al.[41]. See Supplementary Information for full details.\n-3Δ before cloning into a pnEA -TH plasmid for expression of an N-terminal 6His fusion protein using NdeI and BamHI restriction sites25. The cDNA of human Bcl-xL protein, target gene bank number BC019307, was ordered from PlasmID (DANA-FARBER/HARVARD CANCER CENTER). Bcl-xL(Δ27-81ΔCT) (deletion of residues 27-81 and C-terminal 24 residues) was cloned in a pnEA-TH25 plasmid for expression as a N-terminal 6His fusion protein. Primers used for the deletion of the C-terminal part are 5'- […]\nTTTCG-3', including NdeI and BglII restriction sites respectively. […]\nBRET assays were performed as indicated in Bah et al.26. […] Light emissions at 475 nm and 530 nm were measured sequentially using the Mithras ﬂuorescence luminescence detector […]\nLB 940 (Berthold, Thoiry, France) after adding the luciferase substrate coelenterazine H (Uptima, MontLucon, France) at a ﬁnal concentration of […]. BRET signals (mB.U,milliBRET Unit) were determined by calculating the ra tio of the light emitted by the acceptor (530 nm) over the light emitted by the donor (475 nm). Background BRET signals, determined by transient transfection of pCMV-Bcl-xL or pCMV-Bax instead of the corresponding pEYFP plasmids, were subtracted from YFP-specific BRET signals. […]"}},
  "data": [
    {"substance": "TCTP: Translationally Controlled Tumor Protein (TCTP/tpt1), recombinant full-length", "values": [
      {"measurement": "BRET signals with Bcl-xL", "setting": "Bcl-xL", "result": "saturable BRET signals"},
      {"measurement": "BRET signals with BAX", "setting": "BAX", "result": "no specific BRET signals"}
    ]}
  ]
}
